The text below walks through data of patent US20130225543A1, “SPECIFIC REGULATION OF CYTOKINE LEVELS BY HDAC6 INHIBITORS” (Acetylon Pharmaceuticals, priority 2010, published 2013).

A value given as a limit tells only on which side of the number the result lay.

For one experiment, the system named is IL-1β. Particulars: Carta et al. 2006; cited from earlier work.
Experiment [1] concerns collagen induced arthritis. The experiment can be described thus: Collagen induced arthritis in mice. It is filed as in vivo, male DBA/1OlaHsd mice. As to conditions: 30 mg/kg twice daily injection from Day 18.
Protocol: To test these two HDAC6 inhibitors in an animal model of a chronic inflammatory disease a mouse collagen induced arthritis in a semi-therapeutic mode is used. In this study male DBA/1OlaHsd mice, 6 weeks old, are anesthetized with Isoflurane and given 150 μL Type II collagen in Freund's complete adjuvant on Day 0 and Day 21. Treatment with compound is initiated on Day 18. The mice in the treatment groups are injected twice daily with 30 mg/kg of compound in 10% DMSO/10% Solutol HS15/80% 0.9% saline. […] Inflammation in the joints is measured daily and a disease score is calculated based on paw thickness.
Another experiment has as its target T1, HDAC1 (Homo sapiens, UniProt Q13547).
T1 construct: purchased BPS Biosciencies (San Diego, Calif.)
Nature of the experiment: Kinetic HDAC enzyme inhibition assay, HDAC1. Particulars: recombinant HDAC. It is filed as biochemical.

In the next experiment the target is T2, HDAC2 (Homo sapiens, UniProt Q92769).
T2 construct: purchased BPS Biosciencies (San Diego, Calif.)
T2 sequence (Q92769 whole entry): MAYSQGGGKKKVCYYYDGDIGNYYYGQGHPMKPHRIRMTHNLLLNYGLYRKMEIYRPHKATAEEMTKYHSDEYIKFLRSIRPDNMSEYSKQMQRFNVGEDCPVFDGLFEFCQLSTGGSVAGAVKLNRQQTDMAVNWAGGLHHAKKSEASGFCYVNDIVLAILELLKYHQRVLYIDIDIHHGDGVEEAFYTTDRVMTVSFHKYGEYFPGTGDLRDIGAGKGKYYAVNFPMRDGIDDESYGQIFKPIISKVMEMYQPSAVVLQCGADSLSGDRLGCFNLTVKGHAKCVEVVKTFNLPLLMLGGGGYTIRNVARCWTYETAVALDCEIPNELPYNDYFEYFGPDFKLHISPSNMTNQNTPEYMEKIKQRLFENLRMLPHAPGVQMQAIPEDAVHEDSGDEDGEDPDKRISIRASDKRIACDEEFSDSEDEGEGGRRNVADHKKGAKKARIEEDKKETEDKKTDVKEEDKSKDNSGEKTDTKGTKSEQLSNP
The experiment can be described thus: Kinetic HDAC enzyme inhibition assay, HDAC2. It is filed as biochemical. Particulars: recombinant HDAC.

In a further experiment the target is T3, HDAC4 (Homo sapiens, UniProt P56524).
T3 construct: purchased BPS Biosciencies (San Diego, Calif.)
T3 sequence (P56524 whole entry): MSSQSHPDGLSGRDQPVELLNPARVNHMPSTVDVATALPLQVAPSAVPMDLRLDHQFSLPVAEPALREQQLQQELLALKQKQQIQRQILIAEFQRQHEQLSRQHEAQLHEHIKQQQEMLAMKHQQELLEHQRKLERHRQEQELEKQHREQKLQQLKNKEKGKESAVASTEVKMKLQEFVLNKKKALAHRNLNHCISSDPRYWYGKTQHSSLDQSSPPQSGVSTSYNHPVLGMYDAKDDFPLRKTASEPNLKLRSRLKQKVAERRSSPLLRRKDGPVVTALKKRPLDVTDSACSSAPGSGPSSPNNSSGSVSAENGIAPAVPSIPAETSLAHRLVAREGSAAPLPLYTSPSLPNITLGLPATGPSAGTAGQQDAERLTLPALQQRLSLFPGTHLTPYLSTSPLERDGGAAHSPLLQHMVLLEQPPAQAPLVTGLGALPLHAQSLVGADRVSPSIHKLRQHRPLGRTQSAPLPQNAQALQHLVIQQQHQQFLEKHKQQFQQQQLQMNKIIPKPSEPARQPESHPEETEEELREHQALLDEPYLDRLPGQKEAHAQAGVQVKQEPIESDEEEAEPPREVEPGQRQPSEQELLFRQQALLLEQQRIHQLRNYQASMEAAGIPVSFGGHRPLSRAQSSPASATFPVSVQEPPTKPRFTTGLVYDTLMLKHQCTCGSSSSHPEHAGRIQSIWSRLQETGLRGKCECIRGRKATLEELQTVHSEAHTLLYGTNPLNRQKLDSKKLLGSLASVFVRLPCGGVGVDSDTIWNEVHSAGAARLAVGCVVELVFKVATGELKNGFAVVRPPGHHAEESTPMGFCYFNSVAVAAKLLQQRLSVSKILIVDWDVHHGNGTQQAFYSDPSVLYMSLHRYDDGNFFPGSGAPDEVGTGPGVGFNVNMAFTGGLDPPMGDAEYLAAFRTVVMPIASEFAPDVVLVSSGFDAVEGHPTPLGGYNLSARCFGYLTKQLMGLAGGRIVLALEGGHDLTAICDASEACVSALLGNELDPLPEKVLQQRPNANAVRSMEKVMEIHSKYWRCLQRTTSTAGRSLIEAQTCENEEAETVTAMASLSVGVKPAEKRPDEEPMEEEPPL
Nature of the experiment: Kinetic HDAC enzyme inhibition assay, HDAC4. Particulars: recombinant HDAC. It is filed as biochemical.

For the next experiment, the target named is T4, HDAC5 (Homo sapiens, UniProt Q9UQL6).
T4 construct: purchased BPS Biosciencies (San Diego, Calif.)
T4 sequence (Q9UQL6 whole entry): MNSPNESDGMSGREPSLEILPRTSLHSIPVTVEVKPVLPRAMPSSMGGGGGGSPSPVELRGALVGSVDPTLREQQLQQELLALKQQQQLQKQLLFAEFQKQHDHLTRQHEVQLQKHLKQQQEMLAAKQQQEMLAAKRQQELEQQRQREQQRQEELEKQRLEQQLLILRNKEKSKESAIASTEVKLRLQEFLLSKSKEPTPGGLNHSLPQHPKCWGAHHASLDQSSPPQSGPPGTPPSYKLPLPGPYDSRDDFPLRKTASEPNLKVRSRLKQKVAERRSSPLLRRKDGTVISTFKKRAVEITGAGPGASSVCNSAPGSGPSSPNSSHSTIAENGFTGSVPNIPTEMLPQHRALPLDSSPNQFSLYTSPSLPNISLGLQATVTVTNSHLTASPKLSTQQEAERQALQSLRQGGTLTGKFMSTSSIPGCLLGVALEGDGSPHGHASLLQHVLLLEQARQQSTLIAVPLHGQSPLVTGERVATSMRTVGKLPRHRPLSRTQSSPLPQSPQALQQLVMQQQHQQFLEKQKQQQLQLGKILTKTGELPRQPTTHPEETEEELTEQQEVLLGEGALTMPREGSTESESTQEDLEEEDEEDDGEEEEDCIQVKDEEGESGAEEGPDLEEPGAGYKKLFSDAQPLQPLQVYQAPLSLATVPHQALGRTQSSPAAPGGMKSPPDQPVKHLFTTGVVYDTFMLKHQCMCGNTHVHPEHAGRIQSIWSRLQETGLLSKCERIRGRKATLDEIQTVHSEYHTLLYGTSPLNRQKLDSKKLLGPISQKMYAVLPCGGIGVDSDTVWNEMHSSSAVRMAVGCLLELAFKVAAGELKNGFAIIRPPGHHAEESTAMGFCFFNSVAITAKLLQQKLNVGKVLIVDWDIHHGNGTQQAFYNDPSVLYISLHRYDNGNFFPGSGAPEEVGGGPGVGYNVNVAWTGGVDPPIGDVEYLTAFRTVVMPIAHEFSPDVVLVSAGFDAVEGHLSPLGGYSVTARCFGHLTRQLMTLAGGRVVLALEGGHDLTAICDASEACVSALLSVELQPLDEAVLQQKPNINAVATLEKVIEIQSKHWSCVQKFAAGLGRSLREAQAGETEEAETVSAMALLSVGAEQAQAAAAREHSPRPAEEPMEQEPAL
Nature of the experiment: Kinetic HDAC enzyme inhibition assay, HDAC5. It is filed as biochemical. Particulars: recombinant HDAC.

Another experiment concerns the target T5, HDAC7 (Homo sapiens, UniProt Q8WUI4).
T5 construct: purchased BPS Biosciencies (San Diego, Calif.)
T5 sequence (Q8WUI4 1-952): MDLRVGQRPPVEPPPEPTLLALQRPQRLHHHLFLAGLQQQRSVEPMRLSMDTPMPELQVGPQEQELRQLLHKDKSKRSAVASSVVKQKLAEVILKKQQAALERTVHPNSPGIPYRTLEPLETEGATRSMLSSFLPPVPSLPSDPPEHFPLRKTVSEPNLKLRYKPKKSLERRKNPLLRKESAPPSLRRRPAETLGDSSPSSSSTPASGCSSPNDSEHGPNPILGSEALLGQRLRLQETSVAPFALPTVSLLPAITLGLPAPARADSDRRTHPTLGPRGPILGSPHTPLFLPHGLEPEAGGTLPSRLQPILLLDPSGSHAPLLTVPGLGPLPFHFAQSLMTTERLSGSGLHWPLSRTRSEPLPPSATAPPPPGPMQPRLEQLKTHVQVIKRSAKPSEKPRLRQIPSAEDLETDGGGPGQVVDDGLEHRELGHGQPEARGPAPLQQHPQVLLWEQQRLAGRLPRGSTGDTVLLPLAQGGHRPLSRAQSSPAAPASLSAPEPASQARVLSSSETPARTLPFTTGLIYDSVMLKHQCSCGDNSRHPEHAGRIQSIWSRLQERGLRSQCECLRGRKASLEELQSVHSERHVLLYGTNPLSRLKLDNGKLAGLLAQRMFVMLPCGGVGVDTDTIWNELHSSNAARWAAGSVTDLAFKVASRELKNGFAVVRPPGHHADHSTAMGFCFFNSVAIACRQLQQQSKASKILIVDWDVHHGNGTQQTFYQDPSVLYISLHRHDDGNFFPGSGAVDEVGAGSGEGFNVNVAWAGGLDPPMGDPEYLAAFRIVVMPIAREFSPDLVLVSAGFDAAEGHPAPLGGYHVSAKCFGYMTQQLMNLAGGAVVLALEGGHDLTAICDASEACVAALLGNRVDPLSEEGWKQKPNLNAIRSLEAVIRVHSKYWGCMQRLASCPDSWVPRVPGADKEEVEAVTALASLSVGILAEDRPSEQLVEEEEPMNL
The experiment can be described thus: Kinetic HDAC enzyme inhibition assay, HDAC7. It is filed as biochemical. As to conditions: recombinant HDAC.

Another experiment has as its target T6, HDAC9 (Homo sapiens, UniProt Q9UKV0).
T6 construct: purchased BPS Biosciencies (San Diego, Calif.)
Nature of the experiment: Kinetic HDAC enzyme inhibition assay, HDAC9. The format is biochemical. Particulars: recombinant HDAC.

Another experiment concerns human PBMCs. Nature of the experiment: LPS induced cytokine release from PBMCs. The format is cell-based. As to conditions: 1 μM compound, 0.5 ng/ml LPS overnight.
Experiment [2] relates to RAW264.7 mouse macrophages. Nature of the experiment: TNFα protein and mRNA in LPS stimulated RAW264.7 macrophages. The format is cell-based. Particulars: 10 ng/ml LPS, two hours; for TNFα protein level in supernatant: ELISA; for TNFα mRNA level: RT-PCR relative to GAPDH. The protocol: The cells are stimulated with 10 ng/ml LPS and incubated for two hours. The cell supernatants are collected and assayed for the level of TNFα by ELISA. The cells are harvested and mRNA purified using an RNEasy kit from Qiagen. The level of TNFα mRNA is determined by RT-PCR using a StepOne Plus real time PCR machine. The change in the relative level of TNFα mRNA as compared to the level of GAPDH mRNA is plotted, along with the concentration of TNFα protein in the supernatant (see FIG. 4).
In general terms: ELISA stands for enzyme-linked immunosorbent assay.

In another experiment the test system is Class I HDACs and HDAC6. As to conditions: Bradner et al. 2010; cited from earlier work.
For experiment [3], the system named is proinflammatory cytokines. Particulars: Leoni et al. 2002, 2005; cited from earlier work.

T6 sequence (Q9UKV0 whole entry): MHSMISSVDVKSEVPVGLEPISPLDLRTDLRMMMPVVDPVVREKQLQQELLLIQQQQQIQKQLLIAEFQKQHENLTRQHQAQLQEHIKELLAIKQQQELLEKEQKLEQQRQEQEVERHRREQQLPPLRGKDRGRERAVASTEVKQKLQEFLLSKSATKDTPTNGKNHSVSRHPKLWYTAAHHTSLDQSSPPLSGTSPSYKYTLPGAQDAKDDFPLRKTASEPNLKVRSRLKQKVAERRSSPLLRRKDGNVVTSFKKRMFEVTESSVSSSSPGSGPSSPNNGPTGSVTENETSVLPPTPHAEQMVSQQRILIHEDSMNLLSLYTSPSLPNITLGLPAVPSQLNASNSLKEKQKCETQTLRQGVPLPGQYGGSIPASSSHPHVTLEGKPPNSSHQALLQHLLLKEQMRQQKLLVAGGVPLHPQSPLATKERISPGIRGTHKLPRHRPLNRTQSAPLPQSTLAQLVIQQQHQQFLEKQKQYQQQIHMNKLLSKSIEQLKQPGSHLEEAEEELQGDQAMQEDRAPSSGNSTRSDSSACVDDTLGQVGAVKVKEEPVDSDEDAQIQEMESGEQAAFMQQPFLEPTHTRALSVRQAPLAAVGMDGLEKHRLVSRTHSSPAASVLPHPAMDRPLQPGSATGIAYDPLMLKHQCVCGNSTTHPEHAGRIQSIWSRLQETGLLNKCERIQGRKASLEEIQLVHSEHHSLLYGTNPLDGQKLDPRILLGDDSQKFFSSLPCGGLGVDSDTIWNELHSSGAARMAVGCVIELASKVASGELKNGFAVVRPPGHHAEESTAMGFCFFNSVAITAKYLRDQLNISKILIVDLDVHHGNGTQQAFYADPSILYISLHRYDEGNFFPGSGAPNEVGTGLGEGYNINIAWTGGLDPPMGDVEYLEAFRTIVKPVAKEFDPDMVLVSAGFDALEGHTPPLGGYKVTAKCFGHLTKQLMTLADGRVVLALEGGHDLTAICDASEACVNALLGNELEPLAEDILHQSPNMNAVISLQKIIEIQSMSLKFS
T1 sequence (Q13547 whole entry): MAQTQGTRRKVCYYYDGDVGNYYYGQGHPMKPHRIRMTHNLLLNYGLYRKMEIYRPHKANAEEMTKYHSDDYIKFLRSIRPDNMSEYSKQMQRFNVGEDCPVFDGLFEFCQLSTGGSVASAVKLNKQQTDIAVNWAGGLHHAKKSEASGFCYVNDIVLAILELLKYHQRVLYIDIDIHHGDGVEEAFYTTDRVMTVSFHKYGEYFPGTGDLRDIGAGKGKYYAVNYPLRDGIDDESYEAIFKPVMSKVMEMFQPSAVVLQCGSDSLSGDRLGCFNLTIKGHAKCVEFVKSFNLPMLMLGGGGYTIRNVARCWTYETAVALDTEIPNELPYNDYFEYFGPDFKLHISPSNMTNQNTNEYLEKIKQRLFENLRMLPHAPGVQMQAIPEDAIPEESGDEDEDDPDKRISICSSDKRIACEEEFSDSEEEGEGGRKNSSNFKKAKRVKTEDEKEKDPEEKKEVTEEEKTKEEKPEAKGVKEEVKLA
Protocol for HDAC1: (§1) HDAC inhibitory activity of the compounds described in Table 1 is measured using a kinetic HDAC assay. Recombinant HDACs are obtained from BPS Biosciencies (San Diego, Calif.). […] Fluorescence measurements are obtained approximately once per minute using a multilabel plate reader. Data were analyzed using GraphPad Prism.
Protocol for HDAC2: as §1
Protocol for HDAC4: as §1
Protocol for HDAC5: as §1
Protocol for HDAC7: as §1
Protocol for HDAC9: as §1
Protocol for human PBMCs: Whole blood from three anonymous donors is collected in vacutainer tubes with sodium heparin as an anti-coagulant (Research Blood Components, Brighton, Mass.). A total volume of 30 ml of blood is diluted and layered over Ficoll-Paque Plus (GE Life Sciences) and centrifuged at 400×g for 30 minutes. The peripheral blood mononuclear cell (PBMC) fraction is removed from the interface of plasma and Ficoll and washed once with PBS.
Cells are seeded in 24 well plates at a density of 400,000 cells per well.
After the overnight stimulation the plates are centrifuged at 200×g for 5 minutes. The supernatant is removed and a small aliquot is reserved for determination of TNFα levels by ELISA (R&D Systems, catalog number STA00C). The remainder of the supernatant is frozen at −80° C. and sent to Millipore Bioscience Division (St. Charles, Mo.) for multiplex cytokine analysis.

Regarding `C[C@@H]1NC(=O)[C@H]2CCCN2C(=O)[C@H](CCCCCC(=O)[C@@H]2CO2)NC(=O)[C@@H](C)NC1=O` [HC-toxin], in the experiment on IL-1β, the “Level of synthesis or intracellular localization of the precursors of IL-1β” value (“Level … of IL-1β” below) is given as “do not affect” and the “Secretion of mature IL-1β” value was “inhibit secretion”.

Take `O=C(CCCCCCNC(=O)c1cnc(N(c2ccccc2)c2ccccc2)nc1)NO` [ACY-63]: the “Decrease of severity of disease (average)” value in [1] is reported as 67%.

For the molecule `Cc1ccccc1N(c1ccccc1)c1ncc(C(=O)NCCCCCCC(=O)NO)cn1` [ACY-216], the concentration for half-maximal inhibition (IC50) (in general, the concentration that inhibits the measured activity by half) at HDAC1 is 0.057 µM; at HDAC2 it was 0.131 µM; at HDAC4, above 10 µM; at HDAC5 it was above 10 µM; at HDAC7 it was above 10 µM; at HDAC9 it was above 10 µM. Besides, the “Number of LPS induced cytokines decreased (of eight)” value in the experiment on human PBMCs is “three of eight”.

As for `COC(c1ccc(F)cc1)(c1ccc(F)cc1)c1ccc(C(=O)NCCCCCCC(=O)NO)cc1` [ACY-257], the 50% inhibitory concentration (IC50) on HDAC1 was found to be 0.178 µM. In addition, the concentration for half-maximal inhibition (IC50) at HDAC2 came out at 0.45 µM. In addition, at HDAC4, the IC50 was above 10 µM. Further, the IC50 on HDAC5 turned out to be 8.2 µM. Also, the IC50 on HDAC7 was above 10 µM. For the same molecule, the IC50 at HDAC9 was above 10 µM. Also, in the experiment on human PBMCs, the “Effect on production of GM-CSF” value is given as “significantly decreasing”, the “Effect on production of IL-1β” value is “significantly decreasing”, the “Effect on production of IL-6” value was “significantly decreasing” and the “Effect on production of IL-7” value is reported as “no effect”. Further, in the experiment with human PBMCs, the “Effect on production of IL-8” value is reported as “no effect”, the “Effect on production of IL-10” value is “significantly decreasing”, the “Effect on production of MCP-1” value is on record as “no effect” and the “Effect on production of TNF-α” value is recorded as “significantly decreasing”. In the experiment with human PBMCs, the “Number of LPS induced cytokines decreased (of eight)” value was “five of eight”. In addition, the “Decrease of severity of disease (average)” value in experiment [1] amounted to 50%.

Consider `O=C(NO)c1cnc(NC2(c3ccccc3)CC2)nc1` [ACY-738], for which the IC50 on HDAC4 turned out to be 1.6 µM; on HDAC5 it was 0.882 µM; on HDAC7, 1.6 µM; at HDAC9, 0.914 µM. Also, the figures for the “TNFα protein level in supernatant” value in [2] and in [2] (listed as ACY-739) were “inhibition” and “decreases”, respectively. The “TNFα mRNA level” value in experiment [2] is recorded as “inhibition”; in [2] (listed as ACY-739), “decreases”.

With `O=C(CCCCCCC(=O)Nc1ccc([C@H]2O[C@@H](CSc3nc(-c4ccccc4)c(-c4ccccc4)o3)C[C@@H](c3ccc(CO)cc3)O2)cc1)NO` [tubacin], in the experiment with IL-1β, the “Level … of IL-1β” value is on record as “do not affect” and the “Secretion of mature IL-1β” value is listed as “inhibit secretion”.

Regarding `CCN(CC)Cc1ccc2cc(COC(=O)Nc3ccc(C(=O)NO)cc3)ccc2c1` [ITF2357], the HDAC class selectivity result in the experiment on Class I HDACs and HDAC6 is “selective for Class I HDACs and HDAC6 but not Class IIa”. In experiment [3], the “Levels of proinflammatory cytokines” value is “non-specifically reduce”. Moreover, in the experiment on IL-1β, the “Level … of IL-1β” value was “do not affect” and the “Secretion of mature IL-1β” value was “inhibit secretion”.

`O=C(CCCCCCC(=O)Nc1ccccc1)NO` [SAHA, Suberoylanilide hydroxamic acid]: the “Number of LPS induced cytokines decreased (of eight)” value in the experiment with human PBMCs is recorded as “six out of eight”. Besides, the “Levels of proinflammatory cytokines” value in experiment [3] was “non-specifically reduce”. Moreover, in the experiment with IL-1β, the “Level … of IL-1β” value is “do not affect” and the “Secretion of mature IL-1β” value is “inhibit secretion”.

In the case of `O=C(CCCCCCNC(=O)c1ccc(C(O)(c2ccccn2)c2ccccn2)cc1)NO` [ACY-251], the half-inhibitory concentration (IC50) at HDAC1 was 0.045 µM; on HDAC2, 0.096 µM; at HDAC4, above 10 µM; at HDAC5, 5.9 µM; at HDAC7, above 10 µM; at HDAC9 it was above 10 µM.

For `CC(/C=C/C(=O)NO)=C\[C@@H](C)C(=O)c1ccc(N(C)C)cc1` [Trichostatin A], in the experiment on IL-1β, the “Level … of IL-1β” value is on record as “do not affect” and the “Secretion of mature IL-1β” value is reported as “inhibit secretion”.
